Experimental data reported in the NIST ThermoML archive (doi:10.1021/je800251v).
± gives the expanded uncertainty stated by the source.

Details: Liquid

CCCC(=O)OCC [ethyl butanoate]
Details | mass density [kg/m3]
298.15 K, 100 kPa | 873.3 ± 0.8
298.15 K, 1000 kPa | 874.1 ± 0.9
298.15 K, 2000 kPa | 875 ± 0.9
298.15 K, 3000 kPa | 875.9 ± 0.9
298.15 K, 3100 kPa | 876 ± 0.9
298.15 K, 5000 kPa | 877.5 ± 1
298.15 K, 10000 kPa | 881.5 ± 1.2
298.15 K, 15000 kPa | 885.3 ± 1.3
298.15 K, 20000 kPa | 889 ± 1.4
298.15 K, 25000 kPa | 892.5 ± 1.6
298.15 K, 30000 kPa | 896.9 ± 1.7
298.15 K, 35000 kPa | 901.4 ± 1.8
303.15 K, 100 kPa | 868.1 ± 0.8
303.15 K, 1000 kPa | 868.9 ± 0.9
303.15 K, 2000 kPa | 869.8 ± 0.9
303.15 K, 3000 kPa | 870.7 ± 0.9
303.15 K, 3100 kPa | 870.7 ± 0.9
303.15 K, 5000 kPa | 872.4 ± 1
303.15 K, 10000 kPa | 876.5 ± 1.2
303.15 K, 15000 kPa | 880.4 ± 1.3
303.15 K, 20000 kPa | 884.1 ± 1.5
303.15 K, 25000 kPa | 887.8 ± 1.6
303.15 K, 30000 kPa | 892.3 ± 1.7
303.15 K, 35000 kPa | 896.9 ± 1.8
308.15 K, 100 kPa | 862.6 ± 0.8
308.15 K, 1000 kPa | 863.5 ± 0.9
308.15 K, 2000 kPa | 864.4 ± 0.9
308.15 K, 3000 kPa | 865.3 ± 1
308.15 K, 3100 kPa | 865.4 ± 1
308.15 K, 5000 kPa | 867.1 ± 1
308.15 K, 10000 kPa | 871.4 ± 1.2
308.15 K, 15000 kPa | 875.5 ± 1.4
308.15 K, 20000 kPa | 879.4 ± 1.5
308.15 K, 25000 kPa | 883.1 ± 1.7
308.15 K, 30000 kPa | 887.8 ± 1.8
308.15 K, 35000 kPa | 892.5 ± 1.9
313.15 K, 100 kPa | 857.3 ± 0.9
313.15 K, 1000 kPa | 858.2 ± 0.9
313.15 K, 2000 kPa | 859.1 ± 0.9
313.15 K, 3000 kPa | 860.1 ± 1
313.15 K, 3100 kPa | 860.2 ± 1
313.15 K, 5000 kPa | 861.9 ± 1.1
313.15 K, 10000 kPa | 866.3 ± 1.2
313.15 K, 15000 kPa | 870.5 ± 1.4
313.15 K, 20000 kPa | 874.5 ± 1.6
313.15 K, 25000 kPa | 878.4 ± 1.7
313.15 K, 30000 kPa | 883.2 ± 1.8
313.15 K, 35000 kPa | 888.1 ± 2
318.15 K, 100 kPa | 851.9 ± 0.9
318.15 K, 1000 kPa | 852.8 ± 0.9
318.15 K, 2000 kPa | 853.8 ± 1
318.15 K, 3000 kPa | 854.8 ± 1
318.15 K, 3100 kPa | 854.9 ± 1
318.15 K, 5000 kPa | 856.7 ± 1.1
318.15 K, 10000 kPa | 861.3 ± 1.3
318.15 K, 15000 kPa | 865.8 ± 1.4
318.15 K, 20000 kPa | 869.9 ± 1.6
318.15 K, 25000 kPa | 874.1 ± 1.8
318.15 K, 30000 kPa | 879 ± 1.9
318.15 K, 35000 kPa | 884.1 ± 2
323.15 K, 100 kPa | 846.7 ± 0.9
323.15 K, 1000 kPa | 847.4 ± 0.9
323.15 K, 2000 kPa | 848.4 ± 1
323.15 K, 3000 kPa | 849.5 ± 1
323.15 K, 3100 kPa | 849.6 ± 1
323.15 K, 5000 kPa | 851.7 ± 1.1
323.15 K, 10000 kPa | 856.7 ± 1.3
323.15 K, 15000 kPa | 861.1 ± 1.5
323.15 K, 20000 kPa | 865.4 ± 1.6
323.15 K, 25000 kPa | 869.4 ± 1.8
323.15 K, 30000 kPa | 874.5 ± 1.9
323.15 K, 35000 kPa | 879.7 ± 2.1
328.15 K, 100 kPa | 841.4 ± 0.9
328.15 K, 1000 kPa | 842 ± 0.9
328.15 K, 2000 kPa | 843.3 ± 1
328.15 K, 3000 kPa | 844.5 ± 1
328.15 K, 3100 kPa | 844.6 ± 1
328.15 K, 5000 kPa | 846.6 ± 1.1
328.15 K, 10000 kPa | 851.5 ± 1.3
328.15 K, 15000 kPa | 856.2 ± 1.5
328.15 K, 20000 kPa | 860.5 ± 1.7
328.15 K, 25000 kPa | 864.8 ± 1.9
328.15 K, 30000 kPa | 870 ± 2
328.15 K, 35000 kPa | 875.3 ± 2.1
333.15 K, 100 kPa | 835.8 ± 0.9
333.15 K, 1000 kPa | 837 ± 1
333.15 K, 2000 kPa | 838.1 ± 1
333.15 K, 3000 kPa | 839.2 ± 1.1
333.15 K, 3100 kPa | 839.3 ± 1.1
333.15 K, 5000 kPa | 841.2 ± 1.1
333.15 K, 10000 kPa | 846.3 ± 1.3
333.15 K, 15000 kPa | 851.1 ± 1.5
333.15 K, 20000 kPa | 855.6 ± 1.7
333.15 K, 25000 kPa | 860.1 ± 1.9
333.15 K, 30000 kPa | 865.4 ± 2
333.15 K, 35000 kPa | 870.8 ± 2.2
338.15 K, 100 kPa | 830.3 ± 0.9
338.15 K, 1000 kPa | 831.5 ± 1
338.15 K, 2000 kPa | 832.6 ± 1
338.15 K, 3000 kPa | 833.8 ± 1.1
338.15 K, 3100 kPa | 833.9 ± 1.1
338.15 K, 5000 kPa | 835.9 ± 1.2
338.15 K, 10000 kPa | 841.2 ± 1.4
338.15 K, 15000 kPa | 846.2 ± 1.6
338.15 K, 20000 kPa | 850.8 ± 1.8
338.15 K, 25000 kPa | 855.5 ± 1.9
338.15 K, 30000 kPa | 861 ± 2.1
338.15 K, 35000 kPa | 866.5 ± 2.2
343.15 K, 100 kPa | 824.8 ± 1
343.15 K, 1000 kPa | 825.9 ± 1
343.15 K, 2000 kPa | 827.1 ± 1
343.15 K, 3000 kPa | 828.3 ± 1.1
343.15 K, 3100 kPa | 828.4 ± 1.1
343.15 K, 5000 kPa | 830.7 ± 1.2
343.15 K, 10000 kPa | 836.2 ± 1.4
343.15 K, 15000 kPa | 841.4 ± 1.6
343.15 K, 20000 kPa | 846.1 ± 1.8
343.15 K, 25000 kPa | 850.1 ± 2
343.15 K, 30000 kPa | 855.7 ± 2.2
343.15 K, 35000 kPa | 861.8 ± 2.3
348.15 K, 100 kPa | 819.1 ± 1
348.15 K, 1000 kPa | 820.3 ± 1
348.15 K, 2000 kPa | 821.6 ± 1.1
348.15 K, 3000 kPa | 822.9 ± 1.1
348.15 K, 3100 kPa | 823 ± 1.1
348.15 K, 5000 kPa | 825.1 ± 1.2
348.15 K, 10000 kPa | 830.9 ± 1.4
348.15 K, 15000 kPa | 836.2 ± 1.6
348.15 K, 20000 kPa | 841.1 ± 1.9
348.15 K, 25000 kPa | 846 ± 2
348.15 K, 30000 kPa | 851.8 ± 2.2
348.15 K, 35000 kPa | 857.7 ± 2.4
353.15 K, 100 kPa | 813.5 ± 1
353.15 K, 1000 kPa | 814.7 ± 1
353.15 K, 2000 kPa | 816.1 ± 1.1
353.15 K, 3000 kPa | 817.4 ± 1.2
353.15 K, 3100 kPa | 817.5 ± 1.1
353.15 K, 5000 kPa | 819.8 ± 1.2
353.15 K, 10000 kPa | 825.7 ± 1.5
353.15 K, 15000 kPa | 831.2 ± 1.7
353.15 K, 20000 kPa | 836.3 ± 1.9
353.15 K, 25000 kPa | 841.4 ± 2.1
353.15 K, 30000 kPa | 847.4 ± 2.3
353.15 K, 35000 kPa | 853.4 ± 2.4
363.15 K, 100 kPa | 799.9 ± 1
363.15 K, 1000 kPa | 801.4 ± 1.1
363.15 K, 2000 kPa | 803 ± 1.1
363.15 K, 3000 kPa | 804.5 ± 1.2
363.15 K, 3100 kPa | 804.7 ± 1.3
363.15 K, 5000 kPa | 807.9 ± 1.3
363.15 K, 10000 kPa | 814.4 ± 1.5
363.15 K, 15000 kPa | 820.7 ± 1.8
363.15 K, 20000 kPa | 826.7 ± 2
363.15 K, 25000 kPa | 832.4 ± 2.2
363.15 K, 30000 kPa | 837.7 ± 2.4
363.15 K, 35000 kPa | 842.7 ± 2.5
373.15 K, 100 kPa | 788.5 ± 1.1
373.15 K, 1000 kPa | 790.1 ± 1.1
373.15 K, 2000 kPa | 791.7 ± 1.2
373.15 K, 3000 kPa | 793.4 ± 1.2
373.15 K, 3100 kPa | 793.6 ± 1.2
373.15 K, 5000 kPa | 796.8 ± 1.3
373.15 K, 10000 kPa | 804 ± 1.6
373.15 K, 15000 kPa | 810.8 ± 1.8
373.15 K, 20000 kPa | 817.2 ± 2.1
373.15 K, 25000 kPa | 823.1 ± 2.3
373.15 K, 30000 kPa | 828.7 ± 2.5
373.15 K, 35000 kPa | 834 ± 2.7
383.15 K, 100 kPa | 776.9 ± 1.1
383.15 K, 1000 kPa | 778.6 ± 1.1
383.15 K, 2000 kPa | 780.4 ± 1.2
383.15 K, 3000 kPa | 782.2 ± 1.3
383.15 K, 3100 kPa | 782.4 ± 1.3
383.15 K, 5000 kPa | 785.5 ± 1.4
383.15 K, 10000 kPa | 793.5 ± 1.7
383.15 K, 15000 kPa | 800.8 ± 1.9
383.15 K, 20000 kPa | 807.5 ± 2.1
383.15 K, 25000 kPa | 813.8 ± 2.4
383.15 K, 30000 kPa | 819.6 ± 2.6
383.15 K, 35000 kPa | 825.2 ± 2.8
393.15 K, 100 kPa | 765.1 ± 1.1
393.15 K, 1000 kPa | 766.9 ± 1.2
393.15 K, 2000 kPa | 768.8 ± 1.2
393.15 K, 3000 kPa | 770.8 ± 1.3
393.15 K, 3100 kPa | 771 ± 1.3
393.15 K, 5000 kPa | 774.5 ± 1.4
393.15 K, 10000 kPa | 783.1 ± 1.7
393.15 K, 15000 kPa | 790.9 ± 2
393.15 K, 20000 kPa | 798 ± 2.2
393.15 K, 25000 kPa | 804.6 ± 2.5
393.15 K, 30000 kPa | 810.7 ± 2.7
393.15 K, 35000 kPa | 816.6 ± 2.9
